# According to a melting point compilation (Tetko et al.):
row,Structure (SMILES),melting point [°C]
1,CCC(C)(C)N,-105
2,Cc1cc(Br)c[nH]c1=O,171 to 175
3,O=C(Cl)c1csc(-c2cccs2)n1,93 to 94
4,CCCN(C(C)=O)c1ccccc1,49
5,Nc1ccc(F)cc1O,138
6,CCN(Cc1ccc(Cl)nc1)C(=C[N+](=O)[O-])NC,83.5
7,COC(=O)CCc1ccc(OC)c(O)c1,78
8,O=C1OC(Cl)c2ccccc21 (stereo unspecified),60
9,Cc1cc(Cl)[nH]n1,118
10,Cc1cnc(Br)c(N)c1,105
11,COC(=O)CC(=O)c1cccnc1,34 to 42
12,C/C=C/C(=O)O,72
13,CC1(C)C=[N+]([O-])C(C)(C)C=[N+]1[O-],298 to 300
14,CCCCCCC(C)CCC (stereo unspecified),-77.5
15,O=[N+]([O-])c1ccc2[nH]ccc2c1,205 to 207
16,Brc1cncc(Br)c1,112
17,COC(=O)c1c(Cl)nn(C)c1S(=O)(=O)NC(=O)Nc1nc(OC)cc(OC)n1,176
18,COC(=O)C1=C(C(=O)OC)C2(CCl)c3ccccc3C1c1ccccc12,169
19,Clc1ccccc1-c1ccccc1,34
20,COc1ccc(C(C=C(SC)SC)=C(C#N)C#N)cc1,149 to 152
21,O=S(=O)(Cl)c1cccc(Cl)c1Cl,61 to 63
22,O=C(O)c1cc(Cl)c(C(=O)O)cc1Cl,306
23,CC1=C(C=NNC(N)=O)C(=O)C(C(C)C)C=C1 (stereo unspecified),221 to 222
24,NCC(=O)NCC(=O)O,262 to 264
25,O=S(=O)(Cl)Cc1cccc(Br)c1,88 to 89
26,CC(=O)OC1(C(C)=O)CCC2(C)C(CCC3C4CCCC4(C)CCC32)C1 (stereo unspecified),164 to 166

row,Structure (SMILES),melting point [°C]
1,O=C(O)CSc1nnc(S)s1,168 to 169
2,Brc1cn[nH]c1,94.5
3,CNCc1csc(C2CCN(C(=O)OC(C)(C)C)CC2)n1,43 to 47
4,Oc1c(Br)cc(Br)cc1Br,95.5
5,O=C=NC12CC3CC(CC(C3)C1)C2,144 to 146
6,Clc1c(Cl)c(Cl)c2c(c1Cl)Oc1c(Cl)c(Cl)c(Cl)c(Cl)c1O2,330
7,CC(CO)(NC(=O)c1ccccc1)C(=O)O (racemic),153 to 159
8,COc1nc(Cl)nc(OC)n1,77
9,COc1ccc(NC(=S)c2cc(C(C)(C)C)c(O)c(C(C)(C)C)c2)cc1,128 to 129
10,Cc1ccc2cc(Cl)c(Cl)cc2n1,121 to 123
11,N#CCC(=O)N1CCCCC1,88
12,O=[N+]([O-])c1cc(I)cc([N+](=O)[O-])c1,101
13,CCCC(=O)c1c(C)cc(C)c(C2CC(=O)C(C(CC)=NOCC)=C(O)C2)c1C (stereo unspecified),80.8
14,Nc1ccccc1S(N)(=O)=O,155
15,NC(N)=NS(=O)(=O)c1ccc(N)cc1,192
16,CNCCOC(=O)C=C1CCC2C(C(O)CC3C(C)(C(=O)OC)CCCC23C)C1C (stereo unspecified),115
17,CCCC(O)C(CC)CO (stereo unspecified),-40
18,Fc1cc2c(cc1F)Oc1cc(Br)c(Br)cc1O2,210
19,CNC(=O)COc1ccccc1OCC(O)CNC(C)(C)C (stereo unspecified),96.5
20,OC1C=C2CCN3Cc4cc5c(cc4C(C1O)C23)OCO5 (stereo unspecified),280
21,Cc1c(C)c([N+](=O)[O-])c(C(C)(C)C)c([N+](=O)[O-])c1C,136
22,CCSC(SCC)C(O)C(O)C(O)CO (stereo unspecified),127
23,CN(N=Cc1ccc(F)cc1)P(=O)(N1CC1)N1CC1,106
24,CC(O)=NNC(N)=O,165
25,C1CSC2=C(S1)SC(=C1SC3=C(SCCS3)S1)S2,244
26,Brc1ccc(Oc2c(Br)cc(Br)cc2Br)c(Br)c1,97 to 98

# Now from value to molecule:
row,melting point [°C],Structure (SMILES)
1,143,CCCCc1ccc(NC(=O)Oc2ccc(OC)cc2)cc1
2,41.5,COc1ccc(Cn2cncn2)cc1
3,60 to 62,CNCc1ccc(N2CCN(C(=O)OC(C)(C)C)CC2)cc1
4,-23,C[Si](C)(Oc1ccccc1)Oc1ccccc1
5,200,Brc1nc2ccccc2[nH]1
6,288,COc1ccc(C2C3=C(CC(C)(C)CC3=O)Nc3ccc4ccccc4c32)cc1 (stereo unspecified)
7,104,COc1cc(CC(=O)O)ccc1Br
8,31,CC(=O)OC1Cc2ccccc21 (stereo unspecified)
9,202 to 206,Cc1ccc(S(=O)(=O)n2ccc(C(=O)O)c2)cc1
10,47,O=CCCc1ccccc1
11,174,COc1ccccc1/C=C(\C(N)=O)c1nc2ccccc2s1
12,76 to 77,O=Cc1cccn1S(=O)(=O)c1ccccc1
13,125,Cc1cccc(NC(=O)c2ccccc2)c1
14,40.5,CN(C)C(=O)CCCOC(=O)c1ccccc1
15,260,O=c1c(C=Cc2nc3ccccc3[nH]2)coc2ccccc12
16,183,Cc1ccc(NC(=S)Nc2ccc(C)cc2)cc1
17,> 20,CCCOC(=O)C(C)c1ccc(-c2ccccc2)c(F)c1 (stereo unspecified)
18,164 to 166,COc1ccc(C(=O)O)cc1OC1CCCC1
19,97,N#Cc1ccc(OCc2ccccc2)cc1
20,208,O=C(NC1CCN(CCc2c[nH]c3ccccc23)CC1)c1ccccc1

row,melting point [°C],Structure (SMILES)
1,153 to 154,CC(C)(NO)C(=NO)c1ccccc1
2,306,O=C1c2ccccc2C(=O)c2cc(O)ccc21
3,117,O=C(c1ccc(O)cc1)c1ccccc1F
4,56,O=C(c1ccccc1)c1ccc(F)c(F)c1
5,68 to 69,O=Cc1ccccc1-c1cccnc1
6,260 to 262,CC1=C(C(N)=O)C(c2ccccc2)NC(=O)N1 (stereo unspecified)
7,88 to 89,Cc1cc(C(=O)CCl)c(C)n1-c1ccc(Cl)cc1
8,180,CN1c2ccccc2C(C)(C)C12C=Cc1cc([N+](=O)[O-])ccc1O2 (stereo unspecified)
9,165,COc1ccccc1-c1nnc2n1CN(c1ccccc1)CS2
10,103,c1ccc(-c2coc(-c3ccccc3)n2)cc1
11,179 to 180,CCOC(=O)NN(C(=O)OCC)c1c(-c2ccccc2)nc2n1CCS2
12,118 to 119,COc1ccc(-c2ccc(C=O)s2)cc1
13,178,Cc1cc(CC(=O)O)n(C)c1C(=O)c1ccc(Cl)cc1
14,193,O=C(C1=NOC2C(=O)N(c3ccc(F)cc3)C(=O)C12)c1ccc2ccccc2c1 (stereo unspecified)
15,164,O=C(C1=NOC2C(=O)N(c3cccc([N+](=O)[O-])c3)C(=O)C12)c1cccs1 (stereo unspecified)
16,189 to 190,Cc1cc(C)c(C2(C)CC(C(=NO)c3cc4ccccc4o3)C2)c(C)c1 (stereo unspecified)
17,152,COc1ccccc1C1Nn2c(nnc2-c2ccc([N+](=O)[O-])cc2)S1 (stereo unspecified)
18,152,O=C(N[C@@H](Cc1ccc(Br)cc1)C(=O)O)OCC1c2ccccc2-c2ccccc21
19,177,COc1ccc(C(C(=O)NCc2ccccc2)N(Cc2ccc(C)o2)C(=O)CNC(=O)OC(C)(C)C)cc1OC (stereo unspecified)
